“And” between values parts separate entries of the source, which are not always exact repeats. Equal entries are not always repeated. The source made the active and inactive calls. The rule behind the calls is not given here.
Molecular target: glucose-6-phosphate dehydrogenase-6-phosphogluconolactonase (Plasmodium falciparum 3D7)
Assay: PfG6PD enzyme inhibitors, direct NADPH readout, SAR follow-up, orthogonal assay, biochemical, end-point NADPH detection (AID 588588)
Conditions: recombinant PfG6PD-6PGL

Row | SMILES | IC50
1 | Cc1cccc(C(=O)Nc2nnc(S(=O)(=O)N3c4ccccc4CC3C)s2)c1 (stereo not drawn) | > 80 µM (inactive)
2 | O=C1Nc2cc(C(=O)NCCN3CCOCC3)ccc2S/C1=C\c1ccccc1F | > 80 µM (inactive)
3 | O=C1Nc2cc(C(=O)NCc3ccccc3)ccc2S/C1=C\c1ccccc1F | > 80 µM (inactive)
4 | CC1Cc2ccccc2N1S(=O)(=O)c1nnc(NC(=O)c2cccc(Br)c2)s1 (stereo not drawn) | > 80 µM (inactive)
5 | CCN(CCNC(=O)c1ccc2c(c1)N(CC)C(=O)c1ccccc1S2)c1ccccc1 | > 80 µM (inactive)
6 | CCN(CC)CCNC(=O)c1ccc2c(c1)NC(=O)/C(=C\c1ccc(OC)c(OC)c1)S2 | > 80 µM (inactive)
7 | CCN(CC)CCNC(=O)c1ccc2c(c1)N(Cc1ccccc1Cl)C(=O)c1ccccc1S2 | > 80 µM (inactive)
8 | O=C(Nc1nnc(S(=O)(=O)N2CCCCCC2)s1)C1CCCCC1 | > 80 µM (inactive)
9 | CCOc1ccc(C(=O)Nc2nnc(S(=O)(=O)N3CCCCCC3)s2)cc1 | > 80 µM (inactive)
10 | O=C(Nc1nnc(S(=O)(=O)N2CCCc3ccccc32)s1)c1cccc(F)c1 | > 80 µM (inactive)
11 | Cc1cccc(C(=O)Nc2nnc(S(=O)(=O)N3CCC(C)CC3)s2)c1 | > 80 µM (inactive)
12 | Cc1ccc(C(=O)Nc2nnc(S(=O)(=O)N3CCCCCC3)s2)cc1 | > 80 µM (inactive)
13 | CCN(CC)CCNC(=O)c1ccc2c(c1)N(Cc1ccc(C)cc1)C(=O)c1ccccc1S2 | > 80 µM (inactive)
14 | O=C(Nc1nnc(S(=O)(=O)N2CCCCCC2)s1)c1ccccc1F | > 80 µM (inactive)
15 | O=C(Nc1nnc(S(=O)(=O)N2CCOCC2)s1)c1cccc(F)c1 | > 80 µM (inactive)
16 | CCN(CC)CCNC(=O)c1ccc2c(c1)N(Cc1cc(C)ccc1C)C(=O)c1ccccc1S2 | > 80 µM (inactive)
17 | Cc1cccc(C(=O)Nc2nnc(S(=O)(=O)N3CCOCC3)s2)c1 | > 80 µM (inactive)
18 | O=C1Nc2cc(C(=O)NCCN3CCCCCC3)ccc2S/C1=C/c1ccccc1F | > 80 µM (inactive)
19 | Cc1ccc(C(=O)Nc2nnc(S(=O)(=O)N3CCCc4ccccc43)s2)cc1 | > 80 µM (inactive)
20 | CCCN(CCC)CCNC(=O)c1ccc2c(c1)NC(=O)/C(=C\c1ccc(C)cc1)S2 | > 80 µM (inactive)
21 | O=C(Nc1nnc(S(=O)(=O)N2CCCCCC2)s1)c1cccc(Cl)c1 | > 80 µM (inactive)

Row | SMILES | IC50
22 | CCN(CC)CCNC(=O)c1ccc2c(c1)NC(=O)/C(=C\c1ccccc1F)S2 | > 80 µM (inactive)
23 | O=C(NCCN1CCOCC1)c1ccc2c(c1)NC(=O)c1ccccc1O2 | > 80 µM (inactive)
24 | Cc1ccc(CN2C(=O)c3ccccc3Sc3ccc(C(=O)NCCN(C)C)cc32)cc1 | > 80 µM (inactive)
25 | O=C(Nc1nnc(S(=O)(=O)N2CCCCCC2)s1)c1ccc(F)cc1 | > 80 µM (inactive)
26 | CCN(CC)CCNC(=O)c1ccc2c(c1)NC(=O)/C(=C\c1ccccc1Cl)S2 | > 80 µM (inactive)
27 | CN(C)CCNC(=O)c1ccc2c(c1)NC(=O)c1ccccc1O2 | > 80 µM (inactive)
28 | O=C(Nc1nnc(S(=O)(=O)N2CCCCCC2)s1)c1cccc(Br)c1 | > 80 µM (inactive)
29 | CCN(CC)CCNC(=O)c1ccc2c(c1)NC(=O)/C(=C\c1ccc(OC)cc1)S2 | > 80 µM (inactive)
30 | O=C(Nc1nnc(S(=O)(=O)N2CCCCCC2)s1)c1ccco1 | > 80 µM (inactive)
31 | CCN(CC)CCNC(=O)c1ccc2c(c1)NC(=O)c1ccccc1O2 | > 80 µM (inactive)
32 | COc1ccc(/C=C2/Sc3ccc(C(=O)NCCN4CCCCCC4)cc3NC2=O)cc1 | > 80 µM (inactive)
33 | O=C(Nc1nnc(S(=O)(=O)N2CCCCCC2)s1)c1ccccc1 | > 80 µM (inactive)
34 | COc1ccc(/C=C2/Sc3ccc(C(=O)NCCN(C)C)cc3NC2=O)cc1 | > 80 µM (inactive)
35 | Cc1ccccc1C(=O)Nc1nnc(S(=O)(=O)N2CCCCCC2)s1 | > 80 µM (inactive)
36 | Cc1ccccc1C(=O)Nc1nnc(S(=O)(=O)N2CCCc3ccccc32)s1 | > 80 µM (inactive)
37 | O=C1COc2ccc(C(=O)NCCN3CCOCC3)cc2N1 | > 80 µM (inactive)
38 | CCN(CC)CCNC(=O)c1ccc2c(c1)NC(=O)/C(=C\c1cccc(C)c1)S2 | > 80 µM (inactive)
39 | CC1Cc2ccccc2N1S(=O)(=O)c1nnc(NC(=O)c2cccc(F)c2)s1 (stereo not drawn) | > 80 µM (inactive)
40 | COc1ccc(C(=O)Nc2nnc(S(=O)(=O)N3CCCCCC3)s2)cc1 | > 80 µM (inactive)
41 | O=C(Nc1nnc(S(=O)(=O)N2CCCCC2)s1)c1cccc(F)c1 | > 80 µM (inactive)
42 | CN(C)CCNC(=O)c1ccc2c(c1)NC(=O)/C(=C\c1cccc(Cl)c1)S2 | > 80 µM (inactive)

Row | SMILES | IC50
43 | CN1CCN(C(=O)c2ccc3c(c2)NC(=O)/C(=C/c2ccccc2Cl)S3)CC1 | > 80 µM (inactive)
44 | COc1cccc(C(=O)Nc2nnc(S(=O)(=O)N3CCCCCC3)s2)c1 | > 80 µM (inactive)
45 | COc1ccc(C(=O)Nc2nnc(S(=O)(=O)N3CCCCCC3)s2)cc1OC | > 80 µM (inactive)
46 | CCN(CC)CCNC(=O)c1ccc2c(c1)NC(=O)/C(=C/c1ccccc1)S2 | > 80 µM (inactive)
47 | COc1cccc(/C=C2/Sc3ccc(C(=O)NCCN4CCCCCC4)cc3NC2=O)c1 | > 80 µM (inactive)
48 | O=C1COc2ccc(C(=O)NCCN3CCCC3)cc2N1 | > 80 µM (inactive)
49 | CCN(CC)CCNC(=O)c1ccc2c(c1)NC(=O)CO2 | > 80 µM (inactive)
50 | Cc1ccc(C(=O)Nc2nnc(S(=O)(=O)N3c4ccccc4CC3C)s2)cc1 (stereo not drawn) | > 80 µM (inactive)
51 | CN(C)CCNC(=O)c1ccc2c(c1)NC(=O)CO2 | > 80 µM (inactive)
52 | CCCN(CCC)CCNC(=O)c1ccc2c(c1)NC(=O)/C(=C/c1ccccc1)S2 | > 80 µM (inactive)
53 | O=C(Nc1nnc(S(=O)(=O)N2CCCCCC2)s1)c1cccc(F)c1 | > 80 µM (inactive)
54 | O=C1COc2ccc(C(=O)NCCN3CCCCC3)cc2N1 | > 80 µM (inactive)
55 | COc1ccccc1C(=O)Nc1nnc(S(=O)(=O)N2CCCCCC2)s1 | > 80 µM (inactive)
56 | CN(C)CCNC(=O)c1ccc2c(c1)NC(=O)/C(=C/c1ccccc1F)S2 | > 80 µM (inactive)
57 | Cc1cccc(C(=O)Nc2nnc(S(=O)(=O)N3CCCc4ccccc43)s2)c1 | > 80 µM (inactive)
58 | COc1ccc(/C=C2/Sc3ccc(C(=O)NCCN4CCCC4)cc3NC2=O)cc1 | > 80 µM (inactive)
59 | CN(C)CCNC(=O)c1ccc2c(c1)NC(=O)/C(=C\c1ccccc1F)S2 | > 80 µM (inactive)
60 | CCN(CCNC(=O)c1ccc2c(c1)N(Cc1cc(C)ccc1C)C(=O)c1ccccc1S2)c1ccccc1 | > 80 µM (inactive)
61 | Cc1cccc(/C=C2/Sc3ccc(C(=O)NCCN4CCCC4)cc3NC2=O)c1 | > 80 µM (inactive)

The next lines start with the values.

Row | IC50 | SMILES
62 | > 80 µM (inactive) | CCN1CCCC1CNC(=O)c1ccc2c(c1)NC(=O)CS2 (stereo not drawn)
63 | > 80 µM (inactive) | O=C1Nc2cc(C(=O)NCCN3CCCC3)ccc2S/C1=C/c1ccccc1F
64 | > 80 µM (inactive) | CCN1CCCC1CNC(=O)c1ccc2c(c1)N(Cc1ccc(C(F)(F)F)cc1)C(=O)c1ccccc1S2 (stereo not drawn)
65 | > 80 µM (inactive) | CCN1CCCC1CNC(=O)c1ccc2c(c1)N(Cc1cccc(F)c1)C(=O)c1ccccc1S2 (stereo not drawn)
66 | > 80 µM (inactive) | O=C1Nc2cc(C(=O)NCCN3CCCCC3)ccc2S/C1=C\c1ccccc1F
67 | > 80 µM (inactive) | Cc1cccc(N2CCN(CCNC(=O)c3ccc4c(c3)NC(=O)c3ccccc3S4)CC2)c1C
68 | 24.2 µM | CCN1CCCC1CNC(=O)c1ccc2c(c1)NC(=O)c1ccccc1O2 (stereo not drawn)
69 | > 80 µM (inactive) | CCN1CCC[C@H]1CNC(=O)c1ccc2c(c1)NC(=O)/C(=C/c1ccccc1F)S2
70 | > 80 µM (inactive) | CN1CCCC1CCNC(=O)c1ccc2c(c1)NC(=O)/C(=C/c1ccccc1F)S2 (stereo not drawn)
71 | 67.3 µM and 69.8 µM | CCN(CC)CCNC(=O)c1ccc2c(c1)NC(=O)c1ccccc1S2
72 | > 80 µM (inactive) | CCN1CCCC1CNC(=O)c1ccc2c(c1)N(Cc1ccccc1Cl)C(=O)c1ccccc1S2 (stereo not drawn)
73 | > 80 µM (inactive) | CCN1CCC[C@@H]1CNC(=O)c1ccc2c(c1)NC(=O)/C(=C/c1ccccc1F)S2
74 | > 80 µM (inactive) | CCN1CCCC1CNC(=O)c1ccc2c(c1)NC(=O)CO2 (stereo not drawn)
75 | > 80 µM (inactive) | O=C(NCCN1CCCC1)c1ccc2c(c1)NC(=O)c1ccccc1O2
76 | > 80 µM (inactive) | CN(CCNC(=O)c1ccc2c(c1)NC(=O)c1ccccc1S2)C1CCCCC1
77 | > 80 µM (inactive) | O=C1Nc2cc(C(=O)NCCN3CCCCCC3)ccc2S/C1=C/c1ccccc1Cl

Row | IC50 | SMILES
78 | > 80 µM (inactive) | CCN1CCCC1CNC(=O)c1ccc2c(c1)NC(=O)/C(=C/c1ccccc1)S2 (stereo not drawn)
79 | > 80 µM (inactive) | O=C1Nc2cc(C(=O)NCCN3CCCC3)ccc2S/C1=C/c1ccccc1Cl
80 | > 80 µM (inactive) | CCN1CCCC1CNC(=O)c1ccc2c(c1)NC(=O)/C(=C\c1ccc(C)cc1)S2 (stereo not drawn)
81 | 50.3 µM | O=C(NCCN1CCCCC1)c1ccc2c(c1)NC(=O)c1ccccc1O2
82 | > 80 µM (inactive) | CCN1CCCC1CNC(=O)c1ccc2c(c1)N(Cc1ccccc1F)C(=O)c1ccccc1S2 (stereo not drawn)
83 | > 80 µM (inactive) | O=C(NCCN1CCCC1)c1ccc2c(c1)NC(=O)c1ccccc1S2
84 | > 80 µM (inactive) | CCN1CCCC1CNC(=O)c1ccc2c(c1)NC(=O)/C(=C/c1ccccc1C)S2 (stereo not drawn)
85 | > 80 µM (inactive) | CCN1CCCC1CNC(=O)c1ccc2c(c1)NC(=O)/C(=C/c1cccc3ccccc13)S2 (stereo not drawn)
86 | > 80 µM (inactive) | CCN1CCCC1CNC(=O)c1ccc2c(c1)NC(=O)/C(=C/c1ccccc1F)S2 (stereo not drawn)
87 | > 80 µM (inactive) | CCN1CCCC1CNC(=O)c1ccc2c(c1)NC(=O)/C(=C/c1ccccc1OC)S2 (stereo not drawn)
88 | 6.22 µM | CCC(C)N(CCNC(=O)c1ccc2c(c1)NC(=O)c1ccccc1S2)C1CCCCC1 (stereo not drawn)
89 | > 80 µM (inactive) | CCN(CCNC(=O)c1ccc2c(c1)NC(=O)c1ccccc1S2)c1ccccc1
90 | > 80 µM (inactive) | O=C1Nc2cc(C(=O)NCCN3CCCC3)ccc2S/C1=C\c1ccccc1F
91 | > 80 µM (inactive) | CCN1CCCC1CNC(=O)c1ccc2c(c1)NC(=O)/C(=C\c1ccccc1F)S2 (stereo not drawn)
92 | > 80 µM (inactive) | CCN1CCCC1CNC(=O)c1ccc2c(c1)NC(=O)/C(=C\c1ccccc1Cl)S2 (stereo not drawn)
93 | 6.64 µM and 9.89 µM | CCN1CCCC1CNC(=O)c1ccc2c(c1)NC(=O)c1ccccc1S2 (stereo not drawn)
